Reference: patent publication US9884849B2, “Fluorinated benzofuranyl-pyrimidine derivatives containing a sulfoximine group” (Bayer Pharma Aktiengesellschaft, priority 2014, dated 2018)
Read-outs that look alike come from different tables or passages of the source.

Assays:
HeLa cells = assay: Proliferation assay HeLa (Method 3); assay type: cell-based, human; details: 4 days, crystal violet, read-out: Inhibition of HeLa cell proliferation IC50
Experimental: (§1) Cultivated tumour cells (HeLa, human cervical tumour cells, ATCC CCL-2; NCI-H460, human non-small cell lung carcinoma cells, ATCC HTB-177; A2780, human ovarian carcinoma cells, ECACC #93112519; DU 145, hormone-independent human prostate carcinoma cells, ATCC HTB-81; HeLa-MaTu-ADR, multidrug-resistant human cervical carcinoma cells, EPO-GmbH Berlin; Caco-2, human colorectal carcinoma cells, ATCC HTB-37; B16F10, mouse melanoma cells, ATCC CRL-6475) were plated at a density of 5,000 cells/well (DU145, HeLa-MaTu-ADR), 3,000 cells/well (NCI-H460, HeLa), 2,500 cells/well (A2780), 1,500 cells/well (Caco-2), or 1,000 cells/well (B16F10) in a 96-well multititer plate in 200 μL of their respective growth medium supplemented 10% fetal calf serum. After 24 hours, the cells of one plate (zero-point plate) were stained with crystal violet (see below), while the medium of the other plates was replaced by fresh culture medium (200 μl), to which the test substances were added in various concentrations (0 μM, as well as in the range of 0.001-10 μM; the final concentration of the solvent dimethyl sulfoxide was 0.5%). The cells were incubated for 4 days in the presence of test substances. Cell proliferation was determined by staining the cells with crystal violet: the cells were fixed by adding 20 μl/measuring point of an 11% glutaric aldehyde solution for 15 minutes at room temperature. After three washing cycles of the fixed cells with water, the plates were dried at room temperature. The cells were stained by adding 100 μl/measuring point of a 0.1% crystal violet solution (pH 3.0). After three washing cycles of the stained cells with water, the plates were dried at room temperature. The dye was dissolved by adding 100 μl/measuring point of a 10% acetic acid solution. The extinction was determined by photometry at a wavelength of 595 nm. The change of cell number, in percent, was calculated by normalization of the measured values to the extinction values of the zero-point plate (=0%) and the extinction of the untreated (0 μm) cells (=100%). The IC50 values (inhibitory concentration at 50% of maximal effect) were determined by means of a 4 parameter fit.

Caco-2 cells = assay: Proliferation assay Caco-2 (Method 3); assay type: cell-based, human; details: Caco-2, 4 days, crystal violet, read-out: Inhibition of Caco-2 cell proliferation IC50
Experimental: as §1

B16F10 cells = assay: Proliferation assay B16F10 (Method 3); assay type: cell-based, mouse; details: 4 days, crystal violet, read-out: Inhibition of Bc6F10 cell proliferation IC50
Experimental: as §1

CDK2/CycE = target: T1, CDK2/CycE (Homo sapiens, UniProt P24941); assay: CDK2/CycE high ATP kinase assay (Method 2b, TR-FRET); assay type: biochemical; details: 2 mM ATP
T1 construct: GST; purchased ProQinase GmbH (Freiburg, Germany); host or cells: insect cells (Sf9)
Experimental: 2b. CDK2/CycE High ATP Kinase Assay:
CDK2/CycE-Inhibitory Activity of Compounds of the Present Invention at 2 mM Adenosine-Tri-Phosphate (ATP) was Quantified Employing the CDK2/CycE TR-FRET (TR-FRET=Time Resolved Fluorescence Energy Transfer) Assay as Described in the Following Paragraphs.
Recombinant fusion proteins of GST and human CDK2 and of GST and human CycE, expressed in insect cells (Sf9) and purified by Glutathion-Sepharose affinity chromatography, were purchase from ProQinase GmbH (Freiburg, Germany). As substrate for the kinase reaction biotinylated peptide biotin-Ttds-YISPLKSPYKISEG (C-terminus in amid form) was used which can be purchased e.g. form the company JERINI peptide technologies (Berlin, Germany).
For the assay 50 nl of a 100 fold concentrated solution of the test compound in DMSO was pipetted into a black low volume 384 well microtiter plate (Greiner Bio-One, Frickenhausen, Germany), 2 yl of a solution of CDK2/CycE in aqueous assay buffer [50 mM Tris/HCl pH 8.0, 10 mM MgCl2, 1.0 mM dithiothreitol, 0.1 mM sodium ortho-vanadate, 0.01% (v/v) Nonidet-P40 (Sigma)] were added and the mixture was incubated for 15 min at 22° C. to allow pre-binding of the test compounds to the enzyme before the start of the kinase reaction. […] The concentration of CDK2/CycE was adjusted depending of the activity of the enzyme lot and was chosen appropriate to have the assay in the linear range, typical concentrations were in the range of 15 ng/ml. The reaction was stopped by the addition of 5 yl of a solution of TR-FRET detection reagents (0.2 μM streptavidine-XL665 [Cisbio Bioassays, Codolet, France] and 1 nM anti-RB(pSer807/pSer811)-antibody from BD Pharmingen [#558389] and 1.2 nM LANCE EU-W1024 labeled anti-mouse IgG antibody [Perkin-Elmer, product no. AD0077, as an alternative a Terbium-cryptate-labeled anti-mouse IgG antibody from Cisbio Bioassays can be used]) in an aqueous EDTA-solution (100 mM EDTA, 0.2% (w/v) bovine serum albumin in 100 mM HEPES/NaOH pH 7.0).
The resulting mixture was incubated 1 h at 22° C. to allow the formation of complex between the phosphorylated biotinylated peptide and the detection reagents. Subsequently the amount of phosphorylated substrate was evaluated by measurement of the resonance energy transfer from the Eu-chelate to the streptavidine-XL. Therefore, the fluorescence emissions at 620 nm and 665 nm after excitation at 350 nm were measured in a TR-FRET reader, e.g. a Rubystar (BMG Labtechnologies, Offenburg, Germany) or a Viewlux (Perkin-Elmer). The ratio of the emissions at 665 nm and at […] was taken as the measure for the amount of phosphorylated substrate. The data were normalised (enzyme reaction without inhibitor=0% inhibition, all other assay components but no enzyme=100% inhibition).

NCI-H460 cells = assay: Proliferation assay NCI-H460 (Method 3); assay type: cell-based, human; details: NCI-H460, 4 days, crystal violet, read-out: Inhibition of NCI-H460 cell proliferation IC50
Experimental: as §1

Row | Structure (SMILES) | IC50 (HeLa cells) [nM] | IC50 (Caco-2 cells) [nM] | IC50 (B16F10 cells) [nM] | IC50 (CDK2/CycE) [nM] | IC50 (NCI-H460 cells) [nM] | IC50 (HeLa cells; Homo sapiens, 96 h) [nM] | IC50 (Caco-2 cells; Homo sapiens, Caco-2, 96 h) [nM] | IC50 (NCI-H460 cells; Homo sapiens, NCI-H460, 96 h) [nM] | IC50 (B16F10 cells; Mus musculus, B16-F10, 96 h) [nM]
1 | CS(=O)(Cc1cc(F)cc(Nc2ncc(F)c(-c3ccc(F)c4ccoc34)n2)c1)=NC#N (single isomer, unassigned) [Example 9, [(3-Fluoro-5-{[5-fluoro-4-(4-fluoro-1-benzofuran-7-yl)pyrimidin-2-yl]amino}benzyl)(methyl)-oxido-λ^6-sulfanylidene]cyanamide] | 31 | 54 | 52 | 2230 | 106 | – | – | – | –
2 | CS(=N)(=O)Cc1cc(F)cc(Nc2ncc(F)c(-c3ccc(F)c4ccoc34)n2)c1 (single isomer, unassigned) [Example 11, 5-Fluoro-4-(4-fluoro-1-benzofuran-7-yl)-N-{3-fluoro-5-[(S-methylsulfonimidoyl)-methyl]-phenyl}-pyrimidin-2-amine] | – | – | 45 | 913 | – | 31 | 47 | 83 | –
3 | CS(=N)(=O)Cc1cc(F)cc(Nc2ncc(F)c(-c3ccc(F)c4ccoc34)n2)c1 (single isomer, unassigned) [Example 12, 5-Fluoro-4-(4-fluoro-1-benzofuran-7-yl)-N-{3-fluoro-5-[(S-methylsulfonimidoyl)-methyl]-phenyl}-pyrimidin-2-amine] | 30 | 57 | 94 | 1250 | 59 | – | – | – | –
4 | Cc1cc(CS(C)(=O)=NC#N)cc(Nc2ncc(F)c(-c3ccc(F)c4ccoc34)n2)c1 (single isomer, unassigned) [Example 14, [(3-{[5-Fluoro-4-(4-fluoro-1-benzofuran-7-yl)pyrimidin-2-yl]amino}-5-methylbenzyl)-(methyl)oxido-λ^6-sulfanylidene]cyanamide] | – | – | – | 846 | – | 96 | 61 | 112 | 69
5 | Cc1cc(CS(C)(=O)=NC#N)cc(Nc2ncc(F)c(-c3ccc(F)c4ccoc34)n2)c1 (single isomer, unassigned) [Example 15, [(3-{[5-Fluoro-4-(4-fluoro-1-benzofuran-7-yl)pyrimidin-2-yl]amino}-5-methylbenzyl)-(methyl)oxido-λ^6-sulfanylidene]cyanamide] | 107 | 68 | 114 | 835 | 121 | – | – | – | –
